Earlier results, collected in US20200038305A1, “Sunscreen or Sunblock Composition” (Divios LLC, priority 2018, published 2020).

C=C(C)[C@@H]1CCC(C)=C[C@H]1c1c(O)cc(CCCCC)cc1O [CBD, cannabidiol]
Aqueous solubility: 10 µg/mL
